Legend:
Histone deacetylase 9 = Histone deacetylase 9 (Homo sapiens, UniProt Q9UKV0); assay: Inhibition of HDAC9 (unknown origin) using Boc-Lys(acetyl)-AMC as substrate preincubated for 1 hrs followed by substrate addition and measured after 2 hrs by spectrophotometer based fluorometric assay
[1] = biological target: Phosphatidylinositol 4,5-bisphosphate 3-kinase catalytic subunit gamma isoform (Homo sapiens, UniProt P48736); assay: Inhibition of PI3Kgamma (unknown origin) using PIP2 as substrate incubated for 1 hrs in presence of ATP by ADP-Glo kinase assay
Sequence of Phosphatidylinositol 4,5-bisphosphate 3-kinase catalytic subunit gamma isoform (P48736 whole entry, canonical isoform): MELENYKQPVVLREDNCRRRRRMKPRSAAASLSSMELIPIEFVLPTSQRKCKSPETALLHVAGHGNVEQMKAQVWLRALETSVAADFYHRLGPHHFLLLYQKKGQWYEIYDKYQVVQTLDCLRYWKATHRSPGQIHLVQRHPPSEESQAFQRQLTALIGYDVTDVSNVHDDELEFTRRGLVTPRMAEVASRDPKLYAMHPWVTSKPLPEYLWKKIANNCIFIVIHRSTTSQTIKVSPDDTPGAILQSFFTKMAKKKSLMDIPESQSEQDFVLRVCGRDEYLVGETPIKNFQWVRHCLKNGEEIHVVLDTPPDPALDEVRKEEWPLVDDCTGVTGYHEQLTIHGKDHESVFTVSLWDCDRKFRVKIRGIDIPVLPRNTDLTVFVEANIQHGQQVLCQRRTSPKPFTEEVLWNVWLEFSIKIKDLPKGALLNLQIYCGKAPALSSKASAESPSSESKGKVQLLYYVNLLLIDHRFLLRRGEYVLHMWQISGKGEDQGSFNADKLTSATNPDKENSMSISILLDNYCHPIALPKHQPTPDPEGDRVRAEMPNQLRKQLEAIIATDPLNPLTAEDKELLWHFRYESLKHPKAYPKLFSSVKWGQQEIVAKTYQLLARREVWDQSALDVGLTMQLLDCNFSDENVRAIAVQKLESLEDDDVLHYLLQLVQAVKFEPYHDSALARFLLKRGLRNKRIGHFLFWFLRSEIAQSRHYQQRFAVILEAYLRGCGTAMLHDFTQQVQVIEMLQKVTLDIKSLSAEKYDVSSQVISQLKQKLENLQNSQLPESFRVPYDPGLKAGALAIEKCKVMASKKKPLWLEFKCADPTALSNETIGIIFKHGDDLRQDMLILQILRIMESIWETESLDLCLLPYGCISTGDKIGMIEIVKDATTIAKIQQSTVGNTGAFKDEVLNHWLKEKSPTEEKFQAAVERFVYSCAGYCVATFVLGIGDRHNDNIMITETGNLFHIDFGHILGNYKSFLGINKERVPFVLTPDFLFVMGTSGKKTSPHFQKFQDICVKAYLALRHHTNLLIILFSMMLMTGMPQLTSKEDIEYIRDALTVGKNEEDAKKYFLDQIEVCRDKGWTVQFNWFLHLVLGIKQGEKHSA

JeKo-1 = assay: Induction of apoptosis in human JeKo-1 cells assessed as late apoptotic cells at 0.5 uM incubated for 48 hrs by Annexin-V/FITC and PI staining based flow cytometric analysis (reference value: 3.66%); assay type: functional

Sequence of Histone deacetylase 9 (Q9UKV0 whole entry, canonical isoform): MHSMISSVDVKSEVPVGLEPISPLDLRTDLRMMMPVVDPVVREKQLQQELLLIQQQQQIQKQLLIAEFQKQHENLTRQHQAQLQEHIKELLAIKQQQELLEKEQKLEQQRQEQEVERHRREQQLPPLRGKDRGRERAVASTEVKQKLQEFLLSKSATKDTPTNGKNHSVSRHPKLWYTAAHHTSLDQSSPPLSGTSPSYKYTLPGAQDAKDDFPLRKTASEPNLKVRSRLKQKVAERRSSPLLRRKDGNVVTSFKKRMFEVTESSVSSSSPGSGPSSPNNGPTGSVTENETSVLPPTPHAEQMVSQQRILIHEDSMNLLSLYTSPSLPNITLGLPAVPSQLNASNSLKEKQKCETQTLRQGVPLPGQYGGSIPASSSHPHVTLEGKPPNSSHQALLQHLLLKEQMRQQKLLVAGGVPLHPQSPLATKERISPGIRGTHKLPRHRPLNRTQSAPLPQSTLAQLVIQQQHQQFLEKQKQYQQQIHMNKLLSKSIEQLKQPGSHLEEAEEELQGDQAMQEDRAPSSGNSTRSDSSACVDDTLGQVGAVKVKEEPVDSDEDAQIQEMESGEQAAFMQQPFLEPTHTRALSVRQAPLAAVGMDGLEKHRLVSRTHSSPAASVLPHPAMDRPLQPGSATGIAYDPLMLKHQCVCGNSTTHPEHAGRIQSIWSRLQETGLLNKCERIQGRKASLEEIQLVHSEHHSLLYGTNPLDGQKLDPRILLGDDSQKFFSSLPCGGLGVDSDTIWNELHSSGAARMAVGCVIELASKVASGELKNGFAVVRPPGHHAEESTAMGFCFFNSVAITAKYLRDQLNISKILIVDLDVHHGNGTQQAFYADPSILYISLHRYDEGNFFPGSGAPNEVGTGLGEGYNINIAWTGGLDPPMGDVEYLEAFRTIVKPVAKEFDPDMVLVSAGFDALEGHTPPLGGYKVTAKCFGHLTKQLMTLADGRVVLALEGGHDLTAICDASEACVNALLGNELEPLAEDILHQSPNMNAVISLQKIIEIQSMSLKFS

IC50 (Histone deacetylase 9): > 10000 nM | IC50 [1]: 95.4 nM
Compound: COc1nc(-c2ccc(NC(=O)Nc3ccc(C(=O)NCCCCCC(=O)Nc4ccccc4N)cc3)cc2)nc(N2CCOCC2)n1
Activity (JeKo-1): 32.9%

From ChEMBL document CHEMBL5634161, “Discovery of benzamide-based PI3K/HDAC dual inhibitors with marked pro-apoptosis activity in lymphoma cells” (Eur J Med Chem, 2023)
